A short description of the assay: Hair switch volume-down test (switches dosed, combed straight, dried overnight, imaged). The method, then: Dark brown European wavy#6 switches of length 25 cm and weight 2 gms (from the same batch of switches), were dosed with 0.2 ml of a 2% solution of monoglucosamine adipate. Control switches were treated with water.
All switches were combed straight and left to dry overnight.
When dry the switches were combed straight and pictures taken. […] The percentage benefit (i.e. decrease in volume) with respect to control (water) is also given.

Where [1] appears, read: 0.2 ml of a 2% solution on 25 cm, 2 gms switches, combed straight, dried overnight.

Take monoglucosamine adipate: under setting [1], the “% benefit (decrease in volume with respect to control (water))” value came to 8.0% and the “Volume (projection of the switch image on to the screen)” value is recorded as 13047 mm^2. Besides, where the note is “2% solution vs water control, result in words”, the hair volume-down benefit result is recorded as “significant hair volume-down benefit”.

For the origin of these results see patent US10034824B2, “Hair shaping composition” (Conopco, Inc., priority 2014, dated 2018).
